The values below are quoted from earlier work in publication PMC1892056, “Barusiban suppresses oxytocin-induced preterm labour in non-human primates” (BMC Pregnancy and Childbirth, 2007).

Where “and” joins values, the source holds several entries; their conditions need not be identical. Equal values may be shown once. Read-outs that look alike come from different tables or passages of the source.

Data set [1] deals with pregnant cynomolgus monkeys. The source says: Background Preterm labour (PTL) is a major cause of neonatal mortality and morbidity, and oxytocin (OT) antagonists are potential tocolytics. Atosiban (TRACTOCILE) is a mixed vasopressin V1A/OT antagonist registered for acute treatment of PTL in Europe. Other off-label drugs have serious side effects. Barusiban is a selective OT antagonist which has reached clinical development. A monkey model with OT-induced PTL was developed to compare barusiban and atosiban. In addition, the feasibility for long-term treatment of PTL with barusiban was explored. Methods Conscious pregnant cynomolgus monkeys ... || Figure 2 Oxytocin-induced uterine contractions in cynomolgus monkeys. Individual infusion of 5–90 mU OT kg^-1 h^-1 induced stable uterine contractions of about 15–40 mmHg. No short- or long-term desensitisation of OT-induced contractions was observed. On the background of these stable OT-induced contractions, different tocolytics have been evaluated in terms of their PK/PD characteristics. Here two monkeys were infused in parallel for about 11 hours during the night. The switch-off the lights in the evening (06:00 PM) and switch-on the lights (06:00 AM) is labelled by respective symbols.

Data set [2] concerns pregnant cynomolgus monkeys. Also on record: method as in PMID 16914691. As to conditions: for Treatment days until delivery / end of treatment: continuous IV infusion from ca. GD 141, daily OT challenge, barusiban group delivered after the end of treatment; for Basal overall IUP before the daily OT challenges compared to control: during continuous barusiban or fenoterol treatment; for Day of delivery: gestational day, barusiban 150 μg kg^-1 h^-1 or fenoterol 3 μg kg^-1 h^-1 continuous infusion from ca. GD 141, daily OT challenge. The source says: Background Preterm labour (PTL) is a major cause of neonatal mortality and morbidity, and oxytocin (OT) antagonists are potential tocolytics. Atosiban (TRACTOCILE) is a mixed vasopressin V1A/OT antagonist registered for acute treatment of PTL in Europe. […] Barusiban is a selective OT antagonist which has reached clinical development. A monkey model with OT-induced PTL was developed to compare barusiban and atosiban. In addition, the feasibility for long-term treatment of PTL with barusiban was explored.

For data set [3] the following is noted: pregnant cynomolgus monkeys, IV high- or low-dose bolus or infusion, plasma, LC-MS/MS. The source says:
Table 1 Summary of barusiban and atosiban PK/PD characteristics | column: Barusiban; Atosiban

The next data set has as its system human cloned OT receptor. Conditions: selectivity OT receptor over V1A receptor. The source says:
Barusiban is a new long-acting OT receptor antagonist developed for PTL. It is a cyclic heptapeptide and an analogue of endogenous OT designed for longer duration of action. This could provide the convenience of less frequent administration in the clinic. Barusiban has approximately 300-fold greater affinity for the human cloned OT receptor than for the V1A receptor, whereas atosiban binds well to both receptors. […] It has reached phase II of clinical developmen ...

Data set [4] deals with pregnant cynomolgus monkeys. As to conditions: for Potency (IC50): calculated PK/PD potency (plasma concentration) for inhibition of OT-induced IUP, IV bolus or infusion; for Duration of action / Onset of action / Efficacy (decrease in IUP): overall results for IV high- or low-dose bolus or infusion; for Duration of effect on IUP after high-dose infusion: two-hour high-dose IV infusion, barusiban 150 μg kg^-1 h^-1, atosiban 250 μg kg^-1 h^-1. The source says: Table 1 Summary of barusiban and atosiban PK/PD characteristics | column: Barusiban; Atosiban || Background Preterm labour (PTL) is a major cause of neonatal mortality and morbidity, and oxytocin (OT) antagonists are potential tocolytics. Atosiban (TRACTOCILE) is a mixed vasopressin V1A/OT antagonist registered for acute treatment of PTL in Europe. Other off-label drugs have serious side effects. Barusiban is a selective OT antagonist which has reached clinical development. A monkey model with OT-induced PTL was developed to compare barusiban and atosiban. In addition, the feasibility for long-term treatment of PTL with barusiban was explored. Methods Conscious pregnant cynomolgus monkeys ... || Following induction of stable contractions by OT, barusiban or atosiban were administered as high- or low-dose bolus or infusion. […] However, barusiban's duration of action was generally longer than 13–15 hours, while atosiban's effect ceased within 1.5–3 hours (Table 1). The calculated potency of barusiban was about four times higher than the potency of atosiban. || (+ 1 further places)

[5] abbreviates: pregnant cynomolgus monkeys, OT-induced contractions.

Take oxytocin [OT]: the “Desensitisation of OT-induced contractions” value in data set [1] (OT infusion 5–90 mU kg^-1 h^-1, short- and long-term) is recorded as “no OT-related desensitization occurred”. The “Induced uterine contractions (IUP)” value in data set [1] (individual OT infusions at 5–90 mU kg^-1 h^-1) is on record as 15–40 mmHg.

Take `CC(Cc1ccc(O)cc1)NCC(O)c1cc(O)cc(O)c1` (stereo not drawn) [fenoterol, reference compound]: in data set [2], the “Treatment days until delivery / end of treatment” value is reported as about 17 days, the “Basal overall IUP before the daily OT challenges compared to control” value is “unchanged” and the Day of delivery is about 154 days.

On to Barusiban, for which, in data set [3], the Clearance is 0.417 to 1.1 mL/min/kg, the Distribution is 70 to 159 mL/kg and the Half-life was 87.6 to 154 min. Further, the “Affinity for the human cloned OT receptor relative to the V1A receptor” value with human cloned OT receptor is reported as “approximately 300 fold”. Besides, the “Days with statistically lower IUP than the control group” value in data set [2] (barusiban 150 μg kg^-1 h^-1 continuous IV infusion, daily 3–6 h OT infusion) was 8/17. Further, the “Rise in overall IUP during OT infusion” value in data set [2] (barusiban 150 μg kg^-1 h^-1 continuous infusion, OT control about fourfold increase) is recorded as 30%. For the same molecule, the “Days with statistically lower IUP than the fenoterol group” value in data set [2] (barusiban 150 μg kg^-1 h^-1 versus fenoterol 3 μg kg^-1 h^-1, continuous IV infusion, daily 3–6 h OT infusion) is 11/17. For the same molecule, in data set [2], the “Treatment days until delivery / end of treatment” value is reported as “approximately 23 days”, the “Basal overall IUP before the daily OT challenges compared to control” value was “unchanged” and the Day of delivery was about 163 days. Besides, in data set [4], the “Potency (IC50)” value was 0.0127 µg/mL. For the same molecule, the “Potency relative to atosiban” value in data set [4] (calculated potency of barusiban versus atosiban, OT-induced contractions) is on record as “about four”. In data set [4] (high-dose barusiban bolus, then escalating high-dose OT rescue infusion (133–2000 mU kg^-1 h^-1)), the “Reversibility of inhibition of contractions” value was “reversible with high-dose OT”. In addition, the Tolerability entry in data set [4] (pregnant cynomolgus monkeys) is on record as “well tolerated”. In data set [4] (setting [5]), the Duration of action is over 13 to 15 h and the Onset of action is at most 0.5 to 1.5 h. Further, the Duration of action in data set [4] (pregnant cynomolgus monkeys, OT-induced contractions, listed as barusiban) was 13 to 15 h and > 13 h. In addition, the “Time to decrease in IUP compared with OT control levels” value in data set [4] (two hour high-dose IV infusion of barusiban at 150 μg kg^-1 h^-1, n = 3) is at most 0.5 h. In addition, the “Duration of effect on IUP after high-dose infusion” value in data set [4] (n = 3) was “more than 14 h”.

On to Atosiban [reference compound], for which, in data set [3], the Clearance was 8.98 to 15.6 mL/min/kg, the Distribution was 359 to 640 mL/kg and the Half-life was 27.6 to 39.6 min. The “Potency (IC50)” value in data set [4] is 0.0474 µg/mL. Besides, in data set [4] (setting [5]), the Duration of action is 1 to 3 h, the “Efficacy (decrease in IUP)” value is at most 96% and the Onset of action was at most 0.5 to 1.0 h. For the same molecule, in data set [4] (pregnant cynomolgus monkeys, OT-induced contractions, listed as atosiban), the “Efficacy (decrease in IUP)” value is recorded as over 95%. The “Duration of effect on IUP after high-dose infusion” value in data set [4] (n = 3) was 3 h.
